Like-named read-outs stand apart in the source and are kept apart here.
Molecular target: human PRMT8 (Homo sapiens, UniProt Q9NR22)
Experiment: biochemical
From the text: General Materials. S-adenosylmethionine (SAM), S-adenosylhomocysteine (SAH), bicine, Tween20, dimethylsulfoxide (DMSO), bovine skin gelatin (BSG), isopropyl-β-D-thiogalactopyranoside (IPTG), and Tris(2-carboxyethyl)phosphine hydrochloride solution (TCEP) were purchased from Sigma-Aldrich at the highest level of purity possible. ^3H-SAM was purchase from American Radiolabeled Chemicals with a specific activity of 80 Ci/mmol. 384-well streptavidin Flashplates were purchased from PerkinElmer.
Substrates. Peptide representative of human histone H4 residues 31-45 was synthesized with an N-terminal linker-affinity tag motif and a C-terminal amide cap by 21st Century Biochemicals. The peptide was purified by high-performance liquid chromatography (HPLC) to greater than 95% purity and confirmed by liquid chromatography mass spectrometry (LC-MS). The sequence was Biot-Ahx-[…]-amide (SEQ ID NO.:8).
The resulting construct encodes an N-terminal GST tag and a thrombin cleavage sequence
Protein Expression. E. coli (BL21(DE3) Gold, Stratagene) made competent by the CaCl2 method were transformed with the PRMT8 construct and ampicillin selection. Protein over-expression was accomplished by growing the PRMT8 expressing E. coli clone and inducing expression with 0.3 mM IPTG at 16° C. The culture was grown for 12 hours, harvested by centrifugation, and stored at −80° C. for purification.
Protein Purification. […] GST-tagged PRMT8 was eluted with 50 mM Tris, 2 mM glutathione, pH 7.8. Pooled fractions were cleaved by thrombin (10 U) and dialysed in buffer A. GST was removed by reloading the cleaved protein sample onto glutathione sepharose column and PRMT8 was collected in the flow-through fractions. PRMT8 was purified further by ceramic hydroxyapatite chromatography. The column was washed with 50 mM phosphate buffer, 100 mM NaCl, 5% glycerol, 5 mM β-mercaptoethanol, pH 7.8 and PRMT8 was eluted by 100 mM phosphate in the same buffer. Protein was concentrated and buffer was exchanged to 50 mM Tris, 300 mM NaCl, 10% glycerol, 5 mM β-mercaptoethanol, pH 7.8 by ultrafiltration. The purity of recovered protein was 89%.
General Procedure for PRMT8 Enzyme Assays on Peptide Substrates. The assays were all performed in a buffer consisting of 20 mM Bicine (pH=7.6), 1 mM TCEP, 0.005% BSG, and 0.002% Tween 20, prepared on the day of use. Compounds in 100% DMSO (1 ul) were spotted into a polypropylene 384-well V-bottom plates (Greiner) using a Platemate Plus outfitted with a 384-channel head (Thermo Scientific). DMSO (1 ul) was added to Columns 11, 12, 23, 24, rows A-H for the maximum signal control and 1 ul of SAH, a known product and inhibitor of PRMT8, was added to columns 11, 12, 23, 24, rows I-P for the minimum signal control. A cocktail (40 ul) containing the PRMT8 enzyme was added by Multidrop Combi (Thermo-Fisher). The compounds were allowed to incubate with PRMT8 for 30 min at room temperature, then a cocktail (10 ul) containing ^3H-SAM and peptide was added to initiate the reaction (final volume=51 ul). The final concentrations of the components were as follows: PRMT8 was 1.5 nM, ^3H-SAM was 50 nM, non-radiolabeled SAM was 550 nM, peptide was 150 nM, SAH in the minimum signal control wells was 1 mM, and the DMSO concentration was 2%. The assays were stopped by the addition of non-radiolabeled SAM (10 ul) to a final concentration of 400 uM, which dilutes the ^3H-SAM to a level where its incorporation into the peptide substrate is no longer detectable. 50 ul of the reaction in the 384-well polypropylene plate was then transferred to a 384-well Flashplate and the biotinylated peptides were allowed to bind to the streptavidin surface for at least 1 hour before being washed once with 0.1% Tween20 in a Biotek EL×405 plate washer. […]

[1] = biochemical evaluation, peptide substrate, read-out: PRMT8 IC50
[2] = single experiment or average of multiple experiments, read-out: PRMT8 biochemical evaluation (numerical)

Chain of human PRMT8 (Q9NR22 whole entry): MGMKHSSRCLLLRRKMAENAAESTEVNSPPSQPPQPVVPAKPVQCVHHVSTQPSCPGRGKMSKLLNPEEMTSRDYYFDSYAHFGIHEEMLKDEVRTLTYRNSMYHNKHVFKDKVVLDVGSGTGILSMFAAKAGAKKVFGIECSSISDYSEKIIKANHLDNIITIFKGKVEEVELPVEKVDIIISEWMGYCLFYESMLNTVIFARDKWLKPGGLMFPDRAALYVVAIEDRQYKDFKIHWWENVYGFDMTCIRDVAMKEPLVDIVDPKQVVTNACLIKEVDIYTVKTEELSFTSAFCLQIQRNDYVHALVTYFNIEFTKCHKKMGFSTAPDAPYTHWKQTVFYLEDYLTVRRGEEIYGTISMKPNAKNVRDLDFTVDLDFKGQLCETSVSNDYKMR

In the case of `CN(CCN)Cc1n[nH]c2ccc(OCc3ccccc3)cc12` [Compound 1B], the IC50 [1] is reported as 101 to 1000 nM and the IC50 [2] is reported as 267 nM.

With `CC(C)COc1ccc2[nH]nc(CN(C)CCN)c2c1` [Compound 2, N1-((5-iso-butoxy-1H-indazol-3-yl)methyl)-N1-methylethane-1,2-diamine] the IC50 [1] was 101 to 1000 nM and the IC50 [2] was 458 nM.

`CNCCN(C)Cc1n[nH]c2ccc(OCC(C)c3ccccc3)cc12` (centres unmarked) [Compound 19] was tested, and the IC50 [1] was < 100 nM.

For `CNCCN(C)Cc1n[nH]c2ccc(OCc3ccn(C)n3)cc12` [Compound 20], the IC50 [1] was < 100 nM.

`CNCCN(C)Cc1n[nH]c2cccc(OCc3ccccc3)c12` [Compound 21] was tested, and the IC50 [1] was < 100 nM and the IC50 [2] was 67.5 nM.

For `CNCCN(C)Cc1n[nH]c2ccc(Oc3cccc(OC)c3)cc12` [Compound 22], the IC50 [2] was 80.2 nM.

For `CNCCN(C)Cc1n[nH]c2ccc(OCc3ccc(C(C)=O)cc3)cc12` [Compound 23], the IC50 [2] was 42.8 nM.

Work on `CNCCN(C)Cc1n[nH]c2cccc(OCCC(C)C)c12` [Compound 31] yielded an IC50 [1] of 101 to 1000 nM.

`CNCCN(C)Cc1n[nH]c2ccc(OCc3ccn(CC(C)C)n3)cc12` [Compound 33] was tested, and the IC50 [1] was 1010 to 3000 nM and the IC50 [2] was 273 nM.

`CNCCN(C)Cc1n[nH]c2ccc(OC)cc12` [Compound 35] showed an IC50 [2] of 1860 nM.

`CNCCN(C)Cc1n[nH]c2cccc(OCCC(O)CO)c12` (centres unmarked) [Compound 40] gave an IC50 [1] of 1010 to 3000 nM.

Work on `CNCCN(C)Cc1n[nH]c2cccc(OCCCC(O)CO)c12` (centres unmarked) [Compound 41, 5-((3-((methyl(2-(methylamino)ethyl)amino)methyl)-1H-indazol-4-yl)oxy)pentane-1,2-diol] yielded an IC50 [1] of 1010 to 3000 nM.

For `CNCCN(C)Cc1n[nH]c2ccc(C(C)C)cc12` [Compound 42, N^1-((5-isopropyl-1H-indazol-3-yl)methyl)-N^1,N^2-dimethylethane-1,2-diamine], the IC50 [1] was 101 to 1000 nM and the IC50 [2] was 2850 nM.

In the case of `CNCCN(C)Cc1n[nH]c2ccc(N3CCC4(CCCCC4)CC3)cc12` [Compound 43, N^1-((5-(3-azaspiro[5.5]undecan-3-yl)-1H-indazol-3-yl)methyl)-N^1,N^2-dimethylethane-1,2-diamine], the IC50 [1] is reported as 101 to 1000 nM and the IC50 [2] is reported as 2000 nM.

`CNCCN(C)Cc1n[nH]c2ccc(C3CCOCC3)cc12` [Compound 44, N^1,N^2-dimethyl-N^1-((5-(tetrahydro-2H-pyran-4-yl)-1H-indazol-3-yl)methyl)ethane-1,2-diamine] was tested, and the IC50 [1] was < 100 nM and the IC50 [2] was 236 nM.

`CNCCN(C)Cc1n[nH]c2ccc(C3=CCOCC3)cc12` [Compound 45] was tested, and the IC50 [1] was < 100 nM and the IC50 [2] was 133 nM.

For `CNCCN(C)Cc1n[nH]c2ccc(N3CCCCC3)cc12` [Compound 46, N^1,N^2-dimethyl-N^1-((5-(piperidin-1-yl)-1H-indazol-3-yl)methyl)ethane-1,2-diamine], the IC50 [1] was < 100 nM and the IC50 [2] was 98.8 nM.

`CNCCN(C)Cc1n[nH]c2ccc(C3CCCCC3)cc12` [Compound 47, N^1-((5-cyclohexyl-1H-indazol-3-yl)methyl)-N^1,N^2-dimethylethane-1,2-diamine] was tested, and the IC50 [1] was ≤ 100 nM and the IC50 [2] was 91.8 nM.

In the case of `CNCCN(C)Cc1n[nH]c2ccc(C3=CCCCC3)cc12` [Compound 48], the IC50 [1] is reported as ≤ 100 nM and the IC50 [2] is reported as 83.4 nM.

`CNCCN(C)Cc1n[nH]c2ccc(Oc3ccccc3C(F)(F)F)cc12` [Compound 49] showed an IC50 [2] of 45.4 nM.

With `CNCCN(C)Cc1n[nH]c2ccc(OCC3CCOCC3)cc12` [Compound 50] the IC50 [2] was 38.7 nM.
